From ChEMBL document CHEMBL1614631, “Comparative evaluation of oral systemic exposure of 56 xenobiotics in rat, dog, monkey and human” (Xenobiotica, 2005)

What was measured:
[1] = Dose normalised AUC in monkey after po administration; conditions: macaca, in vivo
[2] = Dose normalised AUC in human after po administration; conditions: in vivo
[3] = Dose normalised AUC in rat after po administration; conditions: in vivo
[4] = Dose normalised AUC in dog after po administration; conditions: in vivo

SMILES	DNAUC [1] [kg·min/L]	DNAUC [2] [kg·min/L]	DNAUC [3] [kg·min/L]	DNAUC [4] [kg·min/L]
CC(C)c1nc(CN(C)C(=O)N[C@H](C(=O)N[C@@H](Cc2ccccc2)C[C@H](O)[C@H](Cc2ccccc2)NC(=O)OCc2cncs2)C(C)C)cs1 [RITONAVIR]	27.18	370.17	41.59	101.08
CCN[C@@H](C)Cc1cccc(C(F)(F)F)c1 [DEXFENFLURAMINE]	4.38	80	7.2	6.72
O=c1ccc2ccccc2o1 [COUMARIN]	31.8	2.03	37.5	40.38
CC(C(=O)O)c1ccc(C(=O)c2cccs2)cc1 (stereo not drawn) [SUPROFEN]	355	619.76	320	1108
CC(C)(C)S(=O)(=O)C[C@@H](Cc1ccccc1)C(=O)N[C@@H](Cc1cnc[nH]1)C(=O)N[C@@H](CC1CCCCC1)[C@@H](O)[C@@H](O)C1CC1 [REMIKIREN]	0.14	0.2	0.25	0.63
O=C1CN=C(c2ccccc2Cl)c2cc([N+](=O)[O-])ccc2N1 [CLONAZEPAM]	36.8	590	3.47	24
NCC1(CC(=O)O)CCCCC1 [GABAPENTIN]	156.24	369.82	87.72	290.4
Cc1nc(=O)c(C#N)c(NCc2cccnc2)[nH]1 [PELRINONE]	39.2	152.38	20	84
Cc1ncc2n1-c1ccc(Cl)cc1C(c1ccccc1F)=NC2 [MIDAZOLAM]	4.17	66.67	1.64	23.79
CC1(C)O[C@@H]2C[C@H]3[C@@H]4C[C@H](F)C5=CC(=O)C=C[C@]5(C)[C@H]4[C@@H](O)C[C@]3(C)[C@]2(C(=O)CO)O1 [FLUNISOLIDE]	2.1	16.42	107.25	63.58
Cc1cnc(NC(=O)C2=C(O)c3ccccc3S(=O)(=O)N2C)s1 [MELOXICAM]	2856	6655.81	4998	6870
Cn1cc(/C=C2/C(=O)N3C(C(=O)O)=CS[C@H]23)nn1	0.45	5	0.29	3.33
C1=C(c2ccccc2)CCN(C[C@@H]2CCC=C(c3ccccc3)C2)C1 [CI-1007]	2.34	2.63	2.65	1.46
O=C(O)C(Cl)c1ccc(C2CCCCC2)c(Cl)c1 (stereo not drawn) [FENCLORAC]	491.65	2651.33	630.2	2454.09
COC(=O)C1=C(C)NC(C)=C(C(=O)OCCN(C)Cc2ccccc2)C1c1cccc([N+](=O)[O-])c1 (stereo not drawn) [NICARDIPINE]	3.84	10	1.1	2
CC(=O)NCCOC(=O)C(Oc1cccc(C(F)(F)F)c1)c1ccc(Cl)cc1 (stereo not drawn) [HALOFENATE]	3918.28	15037.59	9183.98	390.13
C#C[C@]1(O)CC[C@H]2[C@@H]3CCc4cc(O)ccc4[C@H]3CC[C@@]21C [ETHINYL ESTRADIOL]	0.68	75.45	0.46	4.5
CC(C(=O)O)c1ccc(-c2ccccc2)c(F)c1 (stereo not drawn) [FLURBIPROFEN]	2364.5	2900.56	1042.5	4718.5
CC(C)n1c(/C=C/C(O)CC(O)CC(=O)O)c(-c2ccc(F)cc2)c2ccccc21 (stereo not drawn) [FLUVASTATIN]	5.37	49.3	195	82.11
CN1C(C(=O)Nc2nccs2)=C(O)c2ccccc2S1(=O)=O [SUDOXICAM]	3821.3	8161.43	4415.2	5554
CC[C@H]1OC(=O)[C@H](C)[C@@H](O[C@H]2C[C@@](C)(OC)[C@@H](O)[C@H](C)O2)[C@H](C)[C@@H](O[C@@H]2O[C@H](C)C[C@H](N(C)C)[C@H]2O)[C@](C)(O)C[C@@H](C)C(=O)[C@H](C)[C@@H](O)[C@]1(C)O [ERYTHROMYCIN]	1.32	36.8	1.88	31.38
CCCCN1C[C@H](O)[C@@H](O)[C@H](O)[C@H]1CO [MIGLUSTAT]	166.88	358.71	16.6	204
